Assay results published in patent US8865672B2, “Prevention of tissue ischemia and related methods” (The United States of America, as represented by the …, priority 2006, dated 2014).

Key:
[1] = test system: vascular cell outgrowth from muscle explants; assay: Explant invasion assay in 3D collagen; assay type: cell-based, mouse; conditions: TSP1 1 μg/ml
Procedure: Muscle biopsies from the pectoralis major muscle of 8 to 12 week old wild type or transgenic mice were harvested and explanted into 100 μl of type I collagen gel in 96-well tissue culture plates as described (Isenberg et al., Matrix Biol 24:110-123, 2005). Following gelation, the embedded explants were overlayed with 75 μl of EGM+2% FCS in the presence or absence of a dose range of DETA/NO (0.01-1000 μM) and other indicated treatments and then incubated at 37° C. and 5% CO2 for 7 days, at which time maximum vascular cell migration through the matrix was measured.

[2] = test system: murine WT and TSP1-null platelets; assay: cGMP in murine platelets; assay type: cell-based, mouse; conditions: WT and null platelets, TSP1 2.2 nM
Procedure: After induction of general anesthesia with isoflurane 2%, age and sex matched C57BL/6 WT and TSP1-null mice underwent cardiac puncture. Blood was aspirated into 1 cc syringes with a 25 gauge needle containing 100 μl heparin (Heparin Lock Flush, Abbott, Chicago, Ill.), mixed with 100 μl 3% ACD and centrifuged in 1.2 ml S-Monovette separation tubes (Sarstedt, Germany). PRP was aspirated off, centrifuged, and the resulting platelet pellet was resuspended in 200 μl of Tyrode's buffer.
Fresh human platelets at 2×10^5 platelets/μl in Tyrode's buffer or PRP were pre-incubated with the indicated agents for 15 minutes and then challenged with DEA/NO for the indicated time interval at room temperature and total cGMP determined via immunoassay (Amersham, GE Healthcare, Buckinghamshire, UK). Murine WT and TSP1-null platelets were treated with DEA/NO and cGMP flux measured.

murine ASMC (CD47 null) = assay: Murine ASMC proliferation; assay type: cell-based, mouse; conditions: CD47 null MASMC
Procedure: Murine ASMC were obtained from aortic segments harvested sterilely from C57B1/6 CD47 null or CD36 null mice as described (Ray et al., Methods Cell Sci 23:185-188, 2001) and cultured in SM-GM (Cambrex)+20% FCS. In the case of CD36 null cells, culture flasks were pre-coated with 1% gelatin prior to cell plating. Wild type C57B1/6 ASMC cultures were prepared as previously described (Isenberg et al., Matrix Biol 24:110-123, 2005). Cell culture purity was determined by immunohistochemistry staining for α-smooth muscle actin. Cells were used within passage 1 to 4 to minimize overgrowth of other cell types.
Proliferation of vascular cells was measured with a non-radioactive colorimetric assay (CellTiter 96, Promega, Madison, Wis.). Briefly, to each well of a 96-well culture plate (Nunc, Denmark) 5×10^3 cells were suspended in 100 μl of culture medium with indicated treatments and incubated for 72 hours at 37° C. in a 5% CO2 atmosphere. Following incubation 20 μl of tetrazolium compound/solubilization agent was added and incubation continued for 4 hours under the same conditions. The plate was then read on a MR580 Microelisa Auto Reader (Dynatech) at a wavelength of 490 nm. Appropriate zero time controls were run for all assays and the optical density readings obtained then subtracted from those obtained at 72 hours.

[3] = test system: white hairless Yucatan miniature pig VSMC; assay: Porcine VSMC adhesion assay; assay type: cell-based; conditions: TSP1 0.022-2.2 nM
Procedure: White hairless Yucatan miniature pig VSMC were plated at 10,000 cells/well onto 96-well plates (Maxisorb, Nunc) precoated with type I collagen (3 μg/ml). Cells were incubated for 1 h in basal medium (lacking additives and serum) with 0.1% BSA and the indicated concentrations of TSP1 and DEA/NO. Plates were then washed with PBS, fixed with glutaraldehyde, stained with crystal violet, and washed. Absorbed stain was solubilized with acetic acid from fixed cells and the resulting color signal determined on a MR580Microelisa Auto Reader, (Dynatech, Alexandria, Va.) at 450 nm wavelength. In other experiments cell were treated with a CD47 or mismatch control morpholino as described for 48 h prior to harvesting.

HAVSMC = assay: Actin cytoskeleton staining (F-actin) in HAVSMC; assay type: cell-based, human
Procedure: VSMC were grown on glass well slides (Lab-Tek, Nunc) under standard growth conditions. Cells were incubated at 37° C. for 1 hour in serum and additive deficient growth medium and the indicated treatment agents, after which the media was removed and the cells were fixed in 4% paraformaldehyde in PBS (pH 7.4, Fisher Scientific) for 15 minutes at room temperature. After washing with DPBS, cells were permeabilized for 5 minutes in 0.1% Triton X-100 in PBS and then blocked in M199E/2% BSA for 30 min at room temperature. Cells were stained for F-actin with 1 unit/200 μl medium/1% BSA of Oregon Green 488 phalloidin (Molecular Probes). Slides were imaged using an Olympus IX70 microscope and photographed at constant exposure and gain. In other experiments VSMC were plated on 24-well culture plates (Nunc, Denmark) in smooth muscle growth medium (50,000 cells/well) and weaned from serum and additives over 24 hours. Cell treatment was performed with the indicated agents in plain medium with 0.1% BSA for 5 minutes. Wells were processed as described above. Following staining with phalloidin cells were incubated in methanol for 30 minutes, samples aliquoted to 96-well black plates and fluorescence read at 520 nm (excitation 495 nm). Data was normalized to total protein. Results represent the mean±SD of at least three separate experiments.

TSP1: thrombospondin-1 prepared from human platelets
ability to antagonize NO-stimulated vascular outgrowth ([1]; CD36-null explants): preserved
ability to antagonize NO-stimulated vascular outgrowth ([1]; CD47-null explants): lost
NO-driven flux in platelet cGMP [2]: decreased the NO-driven flux in platelet cGMP
NO-stimulated proliferation (murine ASMC (CD47 null)): did not inhibit
NO-stimulated adhesion to type I collagen [3]: inhibited
NO-induced actin disassembly (HAVSMC; DEA/NO 10 μM): completely prevented actin disassembly by NO
disassembly of S1P-induced F actin by NO (HAVSMC; S1P 100 nM, DEA/NO 10 μM): attenuated
F-actin levels (HAVSMC; agent alone (TSP1 2.2 nM, S1P 100 nM)): slightly increased F-actin levels
